This note sets out measurements from US20250025543A1, “DRUG FOR TREATING AND/OR PREVENTING CANCER AND USE THEREOF” (YUANBEN (ZHUHAI HENGQIN) BIOTECHNOLOGY CO., LTD., priority 2021, published 2025).

Read-outs that look alike come from different tables or passages of the source.

Test [1] deals with MC38 colon cancer. The settings on record: for Tumor cure rate: groups of 8; for Tumor inhibition rate: vs NS control group.
Description: (§1) The tumor graft inhibition rate and the tumor inhibition rate of the subcutaneous colon cancer in each group were calculated. The formula is as follows: [tumor inhibition rate=(mean tumor weight in control group −mean tumor weight in experimental group)/mean tumor weight in control group×100%]. [tumor cure rate=(number of mice without tumor/total number of mice)×100%].
Mice were weighed and randomly divided into groups of 8. MC38 colon cancer cells were diluted with an IMDM basal medium and inoculated in the right axilla of the C57BL/J mice according to 5×10^5 cells/mouse, with a total amount of 100 μL/mouse, for modeling. After the tumor diameter reached 5 mm, the mice were divided into 4 groups, namely a normal saline control group (NS group), an oxaliplatin injection group (oxaliplatin group), a recombinant MBP-MUC1-N fusion protein vaccine group (vaccine group), and an oxaliplatin in combination with recombinant MBP-MUC1-N fusion protein vaccine formulation group (combination group). On day 3, day 7, day 10, day 14, and day 17 of tumor bearing, the recombinant MBP-MUC1-N fusion protein vaccine formulation was intramuscularly injected at a dose of 100 pg/mouse (diluted with NS, with a total amount of 200 μL) for immunization, and oxaliplatin was intraperitoneally injected at a dose of 3 mg/kg (diluted with 12% DMSO).
Test [2] concerns MC38 colon cancer. Briefly: Vaccine prepared by three-step purification in treatment of MC38 colon cancer alone, compared with anti-PD-1 antibody (Example 3). The class given is in vivo, C57 BL/6J mice.
The subject of test [3] is MC38 colon cancer.
Description: Mice were weighed and randomly divided into groups of 6. MC38 colon cancer cells were diluted with an IMDM basal medium and inoculated in the right axilla of the C57BL/J mice according to 5×10^5 cells/mouse, with a total amount of 100 μL/mouse, for modeling. After the tumor diameter reached 5 mm, the mice were divided into 4 groups, namely a normal saline control group (NS group), an immune checkpoint inhibitor anti-PD-1 antibody injection group (PD-1 group), a recombinant MBP-MUC1-N fusion protein vaccine group (vaccine group), and a recombinant MBP-MUC1-N fusion protein vaccine formulation in combination with immune checkpoint inhibitor anti-PD1 antibody group (combination group). On day 3, day 7, day 10, day 14, and day 17 of tumor bearing, the recombinant MBP-MUC1-N fusion protein vaccine formulation was intramuscularly injected at a dose of 100 μg/mouse (diluted with NS, with a total amount of 200 μL) for immunization, and the immune checkpoint inhibitor anti-PD-1 antibody was intraperitoneally injected at a dose of 250 μg/mouse (diluted with NS, with a total amount of 500 tL/mouse).
as §1

`O=C1[O][Pt]2([NH][C@@H]3CCCC[C@H]3[NH]2)[O]C1=O` [Oxaliplatin group, oxaliplatin]: in the test on MC38 colon cancer [1] (5 days after injection), the Tumor volume is 0.46 ± 0.12 cm^3. The compound further yielded a Tumor volume in the test with MC38 colon cancer [1] (7 days after injection) of 0.81 ± 0.20 cm^3. Moreover, the “Survival time of the mice suffering from the cancer” value in the test with MC38 colon cancer [1] (MC38 tumor-bearing mice, FIG. 3) is on record as 29 days. In the test on MC38 colon cancer [1], this compound had a Tumor cure rate of 12.5% and a Tumor inhibition rate of 50%.
Turning to “Vaccine group: recombinant fusion protein of maltose-binding protein MBP and human mucin MUC1-N in tandem (SEQ ID NO. 3), as vaccine”, the results for the Tumor volume in the test on MC38 colon cancer [2] (3 days after injection), with MC38 colon cancer [2] (7 days after injection) and in the test on MC38 colon cancer [2] (10 days after injection) were 0.41+0.17 cm^3, 1.11+0.83 cm^3 and 1.53+0.55 cm^3, respectively. Further, the Tumor weight with MC38 colon cancer [2] (MC38 tumor-bearing mice, vaccine 50 μg/mouse i.m., anti-PD-1 antibody 200 μg/mouse i.p., day 3, 7, 10, 14 of tumor bearing) was found to be 1.53 ± 0.55 g; in the test on MC38 colon cancer [3] (MC38 tumor-bearing mice, vaccine 100 μg/mouse i.m., anti-PD-1 antibody 250 μg/mouse i.p., day 3, 7, 10, 14, 17 of tumor bearing), 1.96 ± 0.80 g. Besides, the Tumor cure rate came to 40% in the test on MC38 colon cancer [2] (groups of 10); 0% with MC38 colon cancer [1]; 0% in the test with MC38 colon cancer [3] (number of mice without tumor/total number of mice, groups of 6). Besides, the Tumor inhibition rate with MC38 colon cancer [2] (vs PBS control group) turned out to be 40%; in the test on MC38 colon cancer [1], 27%; in the test with MC38 colon cancer [3] (from mean tumor weight vs NS control group), 26%.
